Test results taken from patent publication US11911396B2, “Use of compound in preparation of drug for treating cerebral small vessel disease” (GUANGZHOU CELLPROTEK PHARMACEUTICAL CO., LTD, priority 2017, dated 2024).

Tests used:
[1] = tested on: Iba-1; assay: Iba-1 immunohistochemical staining of prefrontal cortex brain tissue, acute hypobaric hypoxia model; assay type: in vivo, cynomolgus monkeys
From the text: FIG. 2. Activation of microglia in the brain tissue of the prefrontal cortex of cynomolgus monkeys. A. Iba-1 immunohistochemical staining of the brain tissue of the prefrontal cortex of cynomolgus monkeys, Iba-1 serves as a marker for microglia activation. The black scale bar is 25 μm and the red scale bar is 200 μm. B. Statistics of Iba-1 relative optical density values. Image pro plus software was used to perform optical density scanning on the immunohistochemical images of each group to obtain the optical density values, which were then normalized with the NN group. NN: Normobaric Normoxia group (n=4); HH: Hypobaric Hypoxia group (n=4); HH+Triol: Hypobaric Hypoxia with Triol administration group (n=3); HH+PROG: Hypobaric Hypoxia with control drug administration group (n=4). […]
The experiment was carried out according to routine immunohistochemical procedures, as follows: the thickness of paraffin sections of prefrontal cortex tissue of cynomolgus monkeys was 5 μm, and fresh paraffin sections were baked overnight at 37° C. […] Imaging: Nikon ECLIPSE Ti-U inverted fluorescence microscope was used to take pictures of the sections in the bright field, by adjusting the appropriate exposure intensity and background white balance, and fixing the shooting adjustments to take pictures of each group of slices from multiple views and by multiples folds. […]

[2] = tested on: TNF-α; assay: Western blot of TNF-α in prefrontal cortex brain tissue, acute hypobaric hypoxia model; assay type: in vivo, cynomolgus monkeys; conditions: FIGS. 3A and 3B
From the text: FIG. 3. […] A. Protein expression of inflammatory factors IL-6, IL-1β and TNF-α in the brain tissue of the prefrontal cortex of cynomolgus monkeys; B. Statistics of protein relative gray scan values. NN: Normobaric Normoxia group (N=3); HH: Hypobaric Hypoxia group (N=3); HH+Triol: Hypobaric Hypoxia with Triol administration group (N=3); HH+PROG: Hypobaric Hypoxia with control drug administration group (N=3). The gray value was obtained by scanning with Image Lab software, and the relative value was obtained after normalizing with α-Tubulin. One-way ANOVA analysis and Dunnutt's t test were used to perform statistical tests, and in the latter each group was compared with the HH group, *, p<0.05; **, p<0.01.
1) Preparation of protein samples (see the instructions of M-PER protein lysate): After the cells had been processed for the specified time, the medium was aspirated and then washed with 4° C. pre-chilled PBS (0.01M pH7.2˜7.3) for 3 times. […] 2) BCA protein quantification (see the instructions of BCA protein quantification kit): corresponding components were added to a 96-well detection plate by the ratio of quantification reagent A solution:B solution:ddH2O:protein=100:2:7.5:5, and albumin standards diluted in gradient concentration were added to draw a standard curve. […] After the reaction, the absorbance of each well at a wavelength of 562 nm was detected using a microplate reader. […]

C[C@@]12CCCC1C1C[C@@H](O)[C@@]3(O)C[C@@H](O)CC[C@]3(C)C1CC2 (stereo partly drawn) [Triol, 5α-androst-3β,5,6β-triol]
number of cells in the activation-like morphology (microglia) ([1]; FIG. 2): decreased
expression of Iba-1 ([1]; immunohistochemistry, FIG. 2B): decreased significantly
expression level of TNF-α [2]: significantly reduced
